In assay [1] the target is T1, human PDGFR-β(wt) (Homo sapiens, UniProt P09619).
T1 construct: purchased Signalchem P13-11G
Description: Enzyme inhibitory activity, ADP-Glo kinase assay, PDGFR-β(wt). The assay is classed as biochemical. The note with it: read-out: PDGFR-β (IC50 class). Summed up:
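Purified human kinases incubated with ATP and substrate 1–2 h at 25 °C in 40 mM Tris-HCl pH 7.4, 20 mM MgCl2, BSA, DTT, compound over 12 concentrations (10–0.00005645 μM final). ADP formed quantified by ADP-Glo luminescence; IC50 from inhibition versus DMSO control, reported in bins A–D.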
(ADP-Glo turns the ADP formed in a reaction into a luminescent signal.)

For assay [2], the system named is Ba/F3-c-KIT(D816V). Description: Proliferation inhibitory activity on Ba/F3 cell (CellTiter-Glo, 72 hours), c-KIT(D816V). It counts as cell-based. The note with it: Mus musculus, BaF3, read-out: Ba/F3 (nM) c-KIT (D816V) (GI50 class). Summed up: (§1)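 In this assay, Ba/F3 transfectants are treated for 72 h at 37 °C with serially diluted compound (final 0.00005-10 μM), and viable cells are quantified by CellTiter-Glo. Results are expressed relative to vehicle to give GI50 in nM.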
(Cellular ATP, detected with luciferase, serves as a proxy for viable cell number.)

Assay [3] concerns c-KIT V560G/D816V. Put plainly: Proliferation inhibitory activity on Ba/F3 cell (CellTiter-Glo, 72 hours), c-KIT V560G/D816V. The assay is classed as cell-based. The note with it: Mus musculus, BaF3, c-KIT V560G/D816V cells, read-out: Cell (nM) c-KIT V560G/D816V (GI50 class). The procedure, abridged: as §1
The subject of assay [4] is c-KIT D814Y. Put plainly: Proliferation inhibitory activity on Ba/F3 cell (CellTiter-Glo, 72 hours), c-KIT D814Y. The assay is classed as cell-based. The note with it: Mus musculus, BaF3, c-KIT D814Y cells, read-out: Cell (nM) c-KIT D814Y (GI50 class). How it is done: (§2) Ba/F3-TEL-PDGFRα(WT), Ba/F3-TEL-PDGFβ(WT), Ba/F3-c-KIT(D816V) (Kyinno, #KC-0138), c-KIT V560G/D816V, c-KIT D814Y were seeded at 3×10^3/100 μl/well in a clear bottom white 96-well plate. A culture solution containing compounds of 12 concentrations (0.00001-2 mM) serially diluted in 3 folds and the DMSO control group was added at 0.5 μl/well each to a final concentration of 0.00005-10 μM, and then incubated in a CO2 incubator at 37° C. for 72 hours. After 72 hours, the plate treated with the compound was taken out, CellTiter-Glo® Assay (Promega) solution was treated with 100 μl/well, followed by mixing well. After mixing well for about 10 minutes at room temperature, […] was measured using a microplate reader. The data were presented as percentages in proportion to treated cells based on the vehicle, GI50 (nM) values were calculated using GraphPad Prism 8.3.0 (GraphPad software Inc., San Diego).
(§3) The inhibitory activities of Ba/F3 expressing PDGFR-α, PDGFR-β, c-KIT(D816V), c-KIT V560G/D816V, and c-KIT D814Y measured as described above were measured and shown in Table 7 below (A: GI50≤200 nM; B: 200 nM<GI50≤500 nM; C: GI50>500 nM).

The test system of assay [5] is Ba/F3-TEL-PDGFβ(WT). Description: Proliferation inhibitory activity on Ba/F3 cell (CellTiter-Glo, 72 hours), PDGFR-β. It counts as cell-based. The conditions noted are these: Mus musculus, BaF3, read-out: Ba/F3 (nM) Tel-PDGFRβ (GI50 class). Summed up:
as §1

For assay [6], the target named is c-KIT D816V (Homo sapiens, UniProt P10721, D816V). Description: Enzyme inhibitory activity, ADP-Glo kinase assay, c-KIT(D816V). It counts as biochemical. The arrangement: purchased Signalchem C06-12LG. The conditions noted are these: read-out: c-KIT (D816V) (IC50 class). How it is done: (§4) In order to evaluate the inhibitory activity of the compounds synthesized according to the above examples on PDGFR-α(wt), PDGFR-β(wt), c-KIT(wt), and c-KIT(D816V) kinases, the following method was performed. The compounds of examples were reacted with purified human PDGFR-α(wt) (Signalchem #P12-18G) enzyme, human PDGFR-β(wt) (Signalchem #P13-11G) enzyme, human c-KIT(wt) (Signalchem #K06-11BG) enzyme, human c-KIT(D816V) (Signalchem #C06-12LG) enzyme, and the enzyme inhibitory abilities were evaluated by the following method.
(§5) The reaction buffer was used as a composition of 40 mM Tris-HCl pH7.4, 20 mM MgCl2, 0.5 mg/ml BSA, 50 μM DTT, and the reactions of all the tests were carried out on the reaction buffer. The compound was diluted in 12 steps using a serial dilution method from a 10 mM DMSO stock, and the enzyme activity was measured at a final compound concentration of 10˜0.00005645 μM. During the test, the enzyme activity was confirmed using in vitro ADP-Glo™ kinase assay (Promega) after reacting with the proper concentration of human PDGFR-α(wt) enzyme, human PDGFR-β(wt), human c-KIT(wt) enzyme, and human c-KIT(D816V) enzyme with purified ATP and enzyme substrate at 25° C. for 1˜2 hours. At a ratio of 2:2:1, an enzyme-active reaction solution, an ADP-Glo reaction solution, and an enzyme-active detection solution were reacted to measure the inhibition of the enzyme's activity with luminoscence. Based on the […] of the enzyme activity of the solvent control that was not treated with the compound, the degree of enzyme activity inhibition was calculated according to the treatment concentration of each compound, and the concentration of each compound that inhibits 50% of enzyme activity was determined as IC50 (nM) value and the value was obtained by using GraphPad Prism 8.3.0 (GraphPad software Inc., San Diego) software. (A: IC50≤50 nM; B: 50 nM<IC50≤100 nM; C: 100 nM<IC50≤500 nM; D: IC50>500 nM).

The test system of assay [7] is Ba/F3-TEL-PDGFRα(WT). Put plainly: Proliferation inhibitory activity on Ba/F3 cell (CellTiter-Glo, 72 hours), PDGFR-α. The assay is classed as cell-based. The conditions noted are these: Mus musculus, BaF3, read-out: Ba/F3 (nM) Tel-PDGFRα (GI50 class). How it is done: as §2, §3
The target in assay [8] is T2, human PDGFR-α(wt) (Homo sapiens, UniProt P16234).
T2 construct: purchased Signalchem P12-18G
Put plainly: Enzyme inhibitory activity, ADP-Glo kinase assay, PDGFR-α(wt). The assay is classed as biochemical. The conditions noted are these: read-out: PDGFR-α (IC50 class). On the procedure:
as §4, §5

The target in assay [9] is T3, human c-KIT(wt) (Homo sapiens, UniProt P10721).
T3 construct: purchased Signalchem K06-11BG
Put plainly: Enzyme inhibitory activity, ADP-Glo kinase assay, c-KIT(wt). The note with it: read-out: c-KIT (WT) (IC50 class). It counts as biochemical. How it is done:
as §4, §5

Each structure is given as a SMILES string. pIC50: −log10 of the molar value.

T1 sequence (P09619 33-1106): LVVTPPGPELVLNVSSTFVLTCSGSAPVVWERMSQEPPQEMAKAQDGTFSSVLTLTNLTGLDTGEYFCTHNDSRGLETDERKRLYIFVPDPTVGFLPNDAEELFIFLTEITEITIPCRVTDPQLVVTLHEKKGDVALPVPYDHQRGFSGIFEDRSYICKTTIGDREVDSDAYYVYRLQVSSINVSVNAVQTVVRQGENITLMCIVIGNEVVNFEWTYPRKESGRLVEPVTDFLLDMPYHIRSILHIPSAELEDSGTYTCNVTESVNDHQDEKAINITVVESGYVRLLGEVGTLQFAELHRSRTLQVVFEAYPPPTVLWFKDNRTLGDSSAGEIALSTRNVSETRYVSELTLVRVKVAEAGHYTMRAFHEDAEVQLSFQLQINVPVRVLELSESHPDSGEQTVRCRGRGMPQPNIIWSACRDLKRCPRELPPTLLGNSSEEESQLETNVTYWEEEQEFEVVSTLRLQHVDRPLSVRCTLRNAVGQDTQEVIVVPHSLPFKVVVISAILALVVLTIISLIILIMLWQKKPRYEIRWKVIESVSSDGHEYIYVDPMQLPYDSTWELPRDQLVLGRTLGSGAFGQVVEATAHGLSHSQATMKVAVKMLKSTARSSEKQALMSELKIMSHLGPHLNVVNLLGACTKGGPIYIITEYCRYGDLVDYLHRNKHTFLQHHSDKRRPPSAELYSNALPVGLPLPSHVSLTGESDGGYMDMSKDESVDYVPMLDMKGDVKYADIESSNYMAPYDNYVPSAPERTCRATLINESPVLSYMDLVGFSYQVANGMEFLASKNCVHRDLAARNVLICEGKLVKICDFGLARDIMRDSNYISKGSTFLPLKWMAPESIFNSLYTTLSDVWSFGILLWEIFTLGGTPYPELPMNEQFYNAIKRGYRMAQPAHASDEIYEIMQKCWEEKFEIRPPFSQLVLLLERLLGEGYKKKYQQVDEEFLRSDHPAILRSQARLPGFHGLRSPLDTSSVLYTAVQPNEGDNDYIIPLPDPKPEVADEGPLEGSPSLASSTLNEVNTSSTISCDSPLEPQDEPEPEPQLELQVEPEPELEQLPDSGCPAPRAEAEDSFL
T2 sequence (P16234 24-1089): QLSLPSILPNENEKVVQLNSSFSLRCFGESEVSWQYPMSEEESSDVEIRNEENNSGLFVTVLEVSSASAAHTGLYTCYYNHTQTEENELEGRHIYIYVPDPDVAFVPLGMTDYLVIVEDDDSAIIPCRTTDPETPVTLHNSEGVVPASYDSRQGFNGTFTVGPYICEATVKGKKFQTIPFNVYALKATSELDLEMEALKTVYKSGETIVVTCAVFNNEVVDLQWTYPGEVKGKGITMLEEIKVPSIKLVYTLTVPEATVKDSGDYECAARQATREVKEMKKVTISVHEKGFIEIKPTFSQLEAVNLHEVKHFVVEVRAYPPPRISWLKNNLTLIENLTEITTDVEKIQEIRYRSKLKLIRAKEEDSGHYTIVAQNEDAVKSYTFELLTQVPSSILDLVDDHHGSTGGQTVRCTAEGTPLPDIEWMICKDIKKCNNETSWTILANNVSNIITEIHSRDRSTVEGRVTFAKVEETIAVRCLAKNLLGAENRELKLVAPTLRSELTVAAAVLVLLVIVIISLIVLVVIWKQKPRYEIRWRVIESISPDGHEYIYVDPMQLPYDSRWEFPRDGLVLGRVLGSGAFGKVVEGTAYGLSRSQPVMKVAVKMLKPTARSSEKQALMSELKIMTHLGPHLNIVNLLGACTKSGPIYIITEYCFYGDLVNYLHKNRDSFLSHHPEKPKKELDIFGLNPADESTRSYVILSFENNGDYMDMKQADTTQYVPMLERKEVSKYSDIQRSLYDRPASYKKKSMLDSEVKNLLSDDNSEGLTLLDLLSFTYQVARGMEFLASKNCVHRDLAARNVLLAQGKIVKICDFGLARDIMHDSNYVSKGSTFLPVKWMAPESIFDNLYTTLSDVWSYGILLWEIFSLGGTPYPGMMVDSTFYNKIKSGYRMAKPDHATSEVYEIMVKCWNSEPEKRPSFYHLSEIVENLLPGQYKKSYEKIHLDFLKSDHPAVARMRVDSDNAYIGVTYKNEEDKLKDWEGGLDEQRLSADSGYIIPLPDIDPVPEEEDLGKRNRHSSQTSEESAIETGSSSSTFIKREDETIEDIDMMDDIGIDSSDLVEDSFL
Sequence of c-KIT D816V (P10721 26-976 D816V): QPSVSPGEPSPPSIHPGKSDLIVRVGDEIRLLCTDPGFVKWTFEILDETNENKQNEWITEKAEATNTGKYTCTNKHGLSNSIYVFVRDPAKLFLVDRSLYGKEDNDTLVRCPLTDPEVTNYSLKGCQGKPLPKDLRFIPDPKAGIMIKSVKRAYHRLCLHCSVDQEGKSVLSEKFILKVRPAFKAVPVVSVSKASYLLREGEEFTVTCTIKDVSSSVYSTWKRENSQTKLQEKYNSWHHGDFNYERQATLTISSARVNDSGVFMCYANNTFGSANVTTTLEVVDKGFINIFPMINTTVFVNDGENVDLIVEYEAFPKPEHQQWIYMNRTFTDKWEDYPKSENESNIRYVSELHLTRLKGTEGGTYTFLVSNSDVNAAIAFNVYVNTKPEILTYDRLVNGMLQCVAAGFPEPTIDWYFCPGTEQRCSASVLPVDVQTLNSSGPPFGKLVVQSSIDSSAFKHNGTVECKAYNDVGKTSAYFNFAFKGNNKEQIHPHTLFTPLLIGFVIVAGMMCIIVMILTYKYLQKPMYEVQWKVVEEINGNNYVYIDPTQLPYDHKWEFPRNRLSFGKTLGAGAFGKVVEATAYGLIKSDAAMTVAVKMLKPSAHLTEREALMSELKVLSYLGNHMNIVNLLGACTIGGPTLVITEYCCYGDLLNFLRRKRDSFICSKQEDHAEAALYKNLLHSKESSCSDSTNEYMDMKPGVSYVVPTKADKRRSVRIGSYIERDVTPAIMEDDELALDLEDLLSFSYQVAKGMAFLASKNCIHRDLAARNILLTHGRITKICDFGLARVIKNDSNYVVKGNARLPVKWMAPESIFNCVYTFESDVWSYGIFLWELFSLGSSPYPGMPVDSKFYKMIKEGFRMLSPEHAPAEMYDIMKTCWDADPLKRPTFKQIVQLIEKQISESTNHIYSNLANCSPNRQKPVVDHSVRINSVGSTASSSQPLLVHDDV
T3 sequence (P10721 26-976): as the sequence (P10721 26-976 D816V) above, with V791D counted along it

For `CCN1CCC(COc2cc3ncnc(-c4ccc(NC(=O)Cc5ccc(C(F)(F)F)cc5)cc4)c3cc2OC)CC1` [Example 4, N-(4-(7-((1-ethylpiperidin-4-yl)methoxy)-6-methoxyquinazolin-4-yl)phenyl)-2-(4-(trifluoromethyl)phenyl)acetamide], the pIC50 in assay [1] is at least 7.30. Besides, the GI50 in assay [2], in assay [3], in assay [4] and in assay [5] was at most 200 nM each time.

For `CCN1CCCC(COc2cc3ncnc(-c4ccc(NC(=O)Cc5ccc(C(F)(F)F)cc5)cc4)c3cc2OC)C1` (stereo not drawn) [Example 18, N-(4-(7-((1-ethylpiperidin-3-yl)methoxy)-6-methoxyquinazolin-4-yl)phenyl)-2-(4-(trifluoromethyl)phenyl)acetamide], the GI50 in [2], in assay [3], in assay [4] and in assay [5] was at most 200 nM each time.

`COc1cc2c(-c3ccc(NC(=O)Cc4ccc(C(F)(F)F)cc4)cc3)ncnc2cc1OCCn1cccn1` [Example 30, N-(4-(7-(2-(1H-pyrazol-1-yl)ethoxy)-6-methoxyquinazolin-4-yl)phenyl)-2-(4-(trifluoromethyl)phenyl)acetamide]: in assay [1], the pIC50 was at least 7.30. The GI50 in assay [2], in assay [3] and in assay [4] was at most 200 nM each time.

On to `COc1cc2c(-c3ccc(NC(=O)Cc4ccc(C(F)(F)F)cc4)cc3)ncnc2cc1OCCCN1C[C@H]2C[C@@H]1CN2C` [Example 31, N-(4-(6-methoxy-7-(3-((1R,4R)-5-methyl-2,5-diazabicyclo[2.2.1]heptane-2-yl)propoxy)quinazolin-4-yl)phenyl)-2-(4-(trifluoromethyl)phenyl)acetamide], for which the pIC50 in assay [1] is at least 7.30. The GI50 in assay [2], in assay [3] and in assay [4] was at most 200 nM each time.

Consider `CCN1CC[C@@H](COc2cc3ncnc(-c4ccc(NC(=O)Cc5ccc(C(F)(F)F)cc5)cc4)c3cc2OC)C1` [Example 40, (R)-N-(4-(7-((1-ethylpyrrolidin-3-yl)methoxy)-6-methoxyquinazolin-4-yl)phenyl)-2-(4-(trifluoromethyl)phenyl)acetamide], for which, in [1], the pIC50 was at least 7.30. In addition, the GI50 in [2], in [3] and in [4] was at most 200 nM each time.

As for `COCCN1CCC(COc2cc3ncnc(-c4ccc(NC(=O)Cc5ccc(C(F)(F)F)cc5)cc4)c3cc2OC)CC1` [Example 43, N-(4-(6-methoxy-7-((1-(2-methoxyethyl)piperidin-4-yl)methoxy)quinazolin-4-yl)phenyl)-2-(4-(trifluoromethyl)phenyl)acetamide], the pIC50 in assay [1] is at least 7.30. Further, the GI50 in assay [2], in assay [3] and in assay [4] was at most 200 nM in each case.

As for `CCN(CC)CCOc1cc2c(-c3ccc(NC(=O)Cc4ccc(F)cc4)cc3)ncnc2cc1OC` [Example 122, N-(4-(6-(2-(diethylamino)ethoxy)-7-methoxyquinazolin-4-yl)phenyl)-2-(4-fluorophenyl)acetamide], the negative-log IC50 (pIC50) in assay [1] is 7.00 to 7.30; in assay [6], at least 7.30; in assay [8], at least 7.30; in assay [9], at least 7.30. In addition, the GI50 in assay [5] and in [7] was at most 200 nM throughout.

For the compound `COc1cc2ncnc(-c3ccc(NC(=O)Cc4ccc(C(F)(F)F)cc4)cc3)c2cc1OCCN1CCN(C)CC1` [Example 131, N-(4-(7-methoxy-6-(2-(4-methylpiperazin-1-yl)ethoxy)quinazolin-4-yl)phenyl)-2-(4-(trifluoromethyl)phenyl)acetamide], in [1], the pIC50 is at least 7.30. Moreover, the results for the GI50 in assay [2], in [3] and in assay [4] were at most 200 nM, 200 to 500 nM and 200 to 500 nM, respectively.

On to `CCN1CCCC(COc2cc3c(-c4ccc(NC(=O)Cc5ccc(C(F)(F)F)cc5)cc4)ncnc3cc2OC)C1` (stereo not drawn) [Example 134, N-(4-(6-((1-ethylpiperidin-3-yl)methoxy)-7-methoxyquinazolin-4-yl)phenyl)-2-(4-(trifluoromethyl)phenyl)acetamide], for which the GI50 in assay [2], in assay [3] and in assay [4] was at most 200 nM in each case.

With `COc1cc2ncnc(-c3ccc(NC(=O)Cc4ccc(C(F)(F)F)cc4)cc3)c2cc1OC1CNC1` [Example 138, N-(4-(6-(azetidin-3-yloxy)-7-methoxyquinazolin-4-yl)phenyl)-2-(4-(trifluoromethyl)phenyl)acetamide], the GI50 was at most 200 nM in [2], 200 to 500 nM in [3] and at most 200 nM in assay [4].

For `COc1cc2ncnc(-c3ccc(NC(=O)Cc4ccc(C(F)(F)F)cc4)cc3)c2cc1OC1CCNCC1` [Example 140, N-(4-(7-methoxy-6-(piperidin-4-yloxy)quinazolin-4-yl)phenyl)-2-(4-(trifluoromethyl)phenyl)acetamide], the pIC50 in assay [1] and in assay [8] was at least 7.30 in each case. In addition, the GI50 in [2] was at most 200 nM; in assay [3] it was above 500 nM; in assay [4], above 500 nM; in [5], at most 200 nM; in assay [7], at most 200 nM.

Regarding `CCN1CC(Oc2cc3c(-c4ccc(NC(=O)Cc5ccc(C(F)(F)F)cc5)cc4)ncnc3cc2OC)C1` [Example 144, N-(4-(6-((1-ethylazetidin-3-yl)oxy)-7-methoxyquinazolin-4-yl)phenyl)-2-(4-(trifluoromethyl)phenyl)acetamide], the GI50 in [2] was at most 200 nM; in assay [3], 200 to 500 nM; in assay [4] it was at most 200 nM.

Regarding `CCN1CCC(Oc2cc3c(-c4ccc(NC(=O)Cc5ccc(C(F)(F)F)cc5)cc4)ncnc3cc2OC)C1` (stereo not drawn) [Example 145, N-(4-(6-((1-ethylpyrrolidin-3-yl)oxy)-7-methoxyquinazolin-4-yl)phenyl)-2-(4-(trifluoromethyl)phenyl)acetamide], the results for the GI50 in assay [2], in [3] and in assay [4] were at most 200 nM, 200 to 500 nM and at most 200 nM, respectively.

One may read the pIC50 as the IC50 on a negative log10 scale, so that one unit is a factor of ten.

These data come from patent publication US20260138959A1, “QUINAZOLINE DERIVATIVE COMPOUND AND USE THEREOF” (VORONOI INC., priority 2021, published 2026).
